“And” between values parts separate entries of the source, which are not always exact repeats. Equal values may be shown once. “Also recorded” adds a separate entry of the source. Read-outs that look alike come from different tables or passages of the source. Bridge positions count the residues as written; N and C are the ends.

Data set [1] concerns the target T1, α1β2γ2 GABAA receptor (Rattus norvegicus, UniProt P62813+P63138). The class given is cell-based.
The target in data set [2] is T1, α1β2γ2 GABAA receptor. It is filed as cell-based. Conditions: 5 μM muscimol + 100 nM sMmTX1, n=3; control 48±5s.
The target of another data set is α1β2-containing receptor (Rattus norvegicus, UniProt P62813+P63138). It is filed as cell-based. As to conditions: 100 nM sMmTX1, −70 mV.
Sequence of α1β2-containing receptor (P63138 25-474): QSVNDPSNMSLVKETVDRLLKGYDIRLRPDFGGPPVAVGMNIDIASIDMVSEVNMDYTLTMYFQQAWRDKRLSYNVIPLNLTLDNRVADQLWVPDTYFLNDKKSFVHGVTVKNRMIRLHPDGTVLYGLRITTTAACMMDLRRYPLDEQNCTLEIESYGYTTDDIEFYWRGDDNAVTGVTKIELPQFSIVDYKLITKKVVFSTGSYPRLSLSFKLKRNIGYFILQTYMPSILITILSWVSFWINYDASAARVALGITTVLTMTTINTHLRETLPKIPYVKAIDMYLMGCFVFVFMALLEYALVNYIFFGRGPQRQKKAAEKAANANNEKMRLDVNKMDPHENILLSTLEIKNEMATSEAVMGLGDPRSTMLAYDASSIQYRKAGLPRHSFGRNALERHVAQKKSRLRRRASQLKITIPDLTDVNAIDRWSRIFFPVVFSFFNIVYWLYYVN
Sequence of α1β2-containing receptor (P62813 28-455): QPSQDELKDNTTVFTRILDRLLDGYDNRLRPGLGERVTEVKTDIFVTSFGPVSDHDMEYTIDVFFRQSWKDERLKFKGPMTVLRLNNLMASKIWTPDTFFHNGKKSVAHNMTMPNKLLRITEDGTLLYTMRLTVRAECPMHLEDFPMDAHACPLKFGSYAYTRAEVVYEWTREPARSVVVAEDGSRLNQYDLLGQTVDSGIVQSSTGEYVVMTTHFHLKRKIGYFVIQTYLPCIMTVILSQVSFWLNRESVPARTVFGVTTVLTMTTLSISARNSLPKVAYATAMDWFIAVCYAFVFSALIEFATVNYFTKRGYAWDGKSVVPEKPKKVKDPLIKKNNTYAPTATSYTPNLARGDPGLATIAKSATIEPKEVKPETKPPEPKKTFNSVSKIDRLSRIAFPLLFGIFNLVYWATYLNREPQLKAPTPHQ
The subject of a further data set is α1EKβ2γ2 receptor mutant. It is filed as cell-based, rat.
In data set [3] the test system is hippocampal neurons. Nature of the data set: Calcium imaging of hippocampal neurons (Ca^2+ oscillations). It is filed as cell-based, rat.
For data set [4], the system named is hippocampal neurons. It is filed as cell-based, mouse.
The subject of another data set is mice. Conditions: injection into mouse brain.

T1 sequence (P63138 25-474): as the sequence (P63138 25-474) above
T1 sequence (P62813 28-455): as the sequence (P62813 28-455) above
T1 sequence (P18508 39-466, further chain): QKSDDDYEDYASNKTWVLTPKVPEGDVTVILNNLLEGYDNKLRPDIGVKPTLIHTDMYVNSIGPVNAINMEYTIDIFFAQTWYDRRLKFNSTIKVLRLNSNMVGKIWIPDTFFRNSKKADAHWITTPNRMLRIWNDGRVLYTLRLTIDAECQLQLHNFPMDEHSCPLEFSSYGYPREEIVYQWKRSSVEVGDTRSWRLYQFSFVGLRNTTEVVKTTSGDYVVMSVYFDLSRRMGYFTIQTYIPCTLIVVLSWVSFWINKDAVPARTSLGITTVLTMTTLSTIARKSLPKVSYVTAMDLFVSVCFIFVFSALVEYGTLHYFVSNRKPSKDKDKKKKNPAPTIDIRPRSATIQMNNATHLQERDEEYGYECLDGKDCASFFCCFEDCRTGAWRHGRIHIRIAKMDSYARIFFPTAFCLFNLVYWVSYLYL

Consider “LTCKTCPFTTCPNSESCPGGQSICYQRKWEEHRGERIERRCVANCPAFGSHDTSLLCCTRDNCN (disulfide 3-24, 6-11, 17-41, 45-57, 58-63) [sMmTX1]”, for which, on α1β2γ2 GABAA receptor [1], the “alteration of current elicited by 50 μM muscimol” value is recorded as “not significantly altered”. Besides, the “factor of current increase” value at α1β2γ2 GABAA receptor [1] (0.3 μM muscimol + 100 nM sMmTX1, n=5) worked out at 2.7±0.18; at α1β2γ2 GABAA receptor [1] (3 μM muscimol + 10 nM toxin) it was 1.28±0.12; on α1β2γ2 GABAA receptor [1] (3 μM muscimol + 100 nM toxin), 1.33±0.13; at α1β2γ2 GABAA receptor [1] (3 μM muscimol + 300 nM toxin), 1.60±0.11. The “effect on currents and desensitization” value on α1β2γ2 GABAA receptor [1] (3 μM muscimol + 300 nM sMmTX1, −70 mV) is “currents are potentiated and receptor desensitization tends to accelerate”. The “time constant of receptor desensitization” value on α1β2γ2 GABAA receptor [2] was 25 ± 3 s and 25 ± 2 s. In addition, at α1β2-containing receptor, the “sensitivity of the receptor to toxin” value was “sensitive”. In the data set on α1EKβ2γ2 receptor mutant (300 nM muscimol), the “effect on macroscopic conductance” value is reported as “still reduces the macroscopic conductance”. In addition, in the data set on α1EKβ2γ2 receptor mutant (5 μM muscimol + 100 nM sMmTX1, n=4), the “effect on mutant receptor desensitization” value is listed as “does not increase mutant receptor desensitization”. For the same sequence, in the data set with hippocampal neurons [3], the “initial effect on Ca^2+ oscillations” value is “short but substantial inhibition”. In the data set with hippocampal neurons [3] (100 nM sMmTX1 alone, n=9), the “frequency of Ca^2+ spikes compared to cells perfused with extracellular saline solution” value came out at 105.8±4.0%. In addition, in the data set with hippocampal neurons [4] (100 nM sMmTX1, current clamp, n=5), the “frequency of action potentials” value is recorded as “substantial increase; also recorded: significantly increased”. Also, the “action potential amplitude and time-to-peak” value in the data set on hippocampal neurons [4] (100 nM sMmTX1, n=5) is “do not reveal a significant change”. The “amplitude of mini inhibitory postsynaptic currents (mIPSCs)” value with hippocampal neurons [4] (300 nM muscimol and 100 nM sMmTX1, with TTX, DNQX, APV, n=3) was “reduces the amplitude”. In the data set with hippocampal neurons [4] (continuous application of 100 nM sMmTX1), the “currents elicited by 30 ms puffs of 300 nM muscimol” value is listed as “induces a decrease”. The “duration of burst-like postsynaptic currents” value in the data set with hippocampal neurons [4] (sMmTX1, voltage clamp, n=5) is given as “considerable increase”. The 50% lethal dose (LD50) with mice is recorded as 0.013 mg/kg. The behavioral signs result with mice is on record as “identical mouse behavioral phenotype”.

As usually defined, the LD50 is the dose expected to kill half of the subjects tested.

These data come from patent US20180009859A1, “PHARMACOLOGICAL MODULATORS OF GABAA RECEPTORS AND THEIR USE” (priority 2015, published 2018).
